Values after ≈ are worked out from the molar mass of the structure shown.
How the values were obtained:
Assay type in all cases: functional
Staphylococcus aureus [1] = assay: Antimicrobial activity against Staphylococcus aureus SH1000 after 24 hrs by agar dilution method; conditions: SH1000, 24 h
[2] = tested on: Staphylococcus saprophyticus; assay: Antimicrobial activity against Staphylococcus saprophyticus ATCC 15305 after 24 hrs by agar dilution method; conditions: ATCC 15305, 24 h
Staphylococcus aureus [3] = assay: Antimicrobial activity against Staphylococcus aureus RN4220 after 24 hrs by agar dilution method; conditions: RN4220, 24 h
Staphylococcus aureus [4] = assay: Antimicrobial activity against Staphylococcus aureus RN4220 harboring tetracycline-regulable expression vector pAJ96 after 24 hrs by agar dilution method; conditions: RN4220, 24 h
Staphylococcus aureus [5] = assay: Antimicrobial activity against Staphylococcus aureus RN4220 harboring tetracycline-regulable expression vector pAJ96 expressing Staphylococcus aureus GyrB gene after 24 hrs by agar dilution method; conditions: RN4220, 24 h
Staphylococcus aureus [6] = assay: Antimicrobial activity against Staphylococcus aureus RN4220 harboring tetracycline-regulable expression vector pAJ96 expressing Staphylococcus saprophyticus GyrB gene after 24 hrs by agar dilution method; conditions: RN4220, 24 h
Staphylococcus aureus [7] = assay: Antimicrobial activity against Staphylococcus aureus RN4220 harboring tetracycline-regulable expression vector pAJ96 expressing Staphylococcus saprophyticus GyrB G85D mutant gene after 24 hrs by agar dilution method; conditions: RN4220, 24 h
Staphylococcus aureus [8] = assay: Antimicrobial activity against Staphylococcus aureus RN4220 harboring tetracycline-regulable expression vector pAJ96 expressing Staphylococcus saprophyticus GyrB K140R mutant gene after 24 hrs by agar dilution method; conditions: RN4220, 24 h
Staphylococcus aureus [9] = assay: Antimicrobial activity against Staphylococcus aureus RN4220 harboring tetracycline-regulable expression vector pAJ96 expressing Staphylococcus saprophyticus GyrB G85D, K140R mutant gene after 24 hrs by agar dilution method; conditions: RN4220, 24 h
[10] = Ratio of MIC for Staphylococcus aureus RN4220 harboring tetracycline-regulable expression vector pAJ96 expressing Staphylococcus saprophyticus GyrB gene to MIC for Staphylococcus aureus SH1000
[11] = Ratio of MIC for Staphylococcus aureus RN4220 harboring tetracycline-regulable expression vector pAJ96 expressing Staphylococcus saprophyticus GyrB gene to MIC for Staphylococcus aureus RN4220

In the case of `CO[C@@H]1[C@@H](OC(N)=O)[C@@H](O)[C@H](Oc2ccc3c(O)c(NC(=O)c4ccc(O)c(CC=C(C)C)c4)c(=O)oc3c2C)OC1(C)C` [NOVOBIOCIN], the MIC (Staphylococcus aureus [1]) is reported as 0.125 µg/mL (≈ 0.204 µM), the MIC [2] is reported as 16 µg/mL (≈ 26.1 µM) and the MIC (Staphylococcus aureus [3]) is reported as 0.125 µg/mL (≈ 0.204 µM). It also gave an MIC (Staphylococcus aureus [4]) of 0.125 µg/mL (≈ 0.204 µM), an MIC (Staphylococcus aureus [5]) of 0.125 µg/mL (≈ 0.204 µM) and an MIC (Staphylococcus aureus [6]) of 8 µg/mL (≈ 13.1 µM). The MIC (Staphylococcus aureus [7]) was 1 µg/mL (≈ 1.63 µM), the MIC (Staphylococcus aureus [8]) was 2 µg/mL (≈ 3.26 µM) and the MIC (Staphylococcus aureus [9]) was 0.125 µg/mL (≈ 0.204 µM). The Ratio [10] was 64 and the Ratio [11] was 64.
